These results are taken from patent publication US12447156B2, “Treating progressive familial intrahepatic cholestasis (PFIC) with IBAT inhibitors” (ALBIREO AB, priority 2020, dated 2025).

Experiment [1] relates to patients with PFIC. Nature of the experiment: Pooled PEDFIC 1/2: relationships between changes in autotaxin, pruritus and serum bile acids (weeks 25-48). In kind it is in vivo, human. Here is the method: Phase 3 study data of 77 patients treated with odevisibat was pooled from the PEDFIC 1 and PEDFIC 2 studies. In PEDFIC 1, patients received placebo or odevixibat 40 or 120 μg/kg/day for 24 weeks; in PEFFIC 2, patients were enrolled in an ongoing extension study, with all patients receiving 120 μg/kg/day. At the data cutoff, 77 patients had received odevixibat. The median length of odevixibat treatment was 37 weeks, with a range of 1-108 weeks. Most patients (88%) were continuing on treatment. Characteristics of patients with available data at weeks 25-48 who were included in the current analyses were generally similar to the overall study population.
Autotaxin was assessed prior to treatment and throughout PEDFIC 1 and PEDFIC 2. Caregivers evaluated patients' pruritus using the validated PRUCISION scale, where scores range from 0 to 4; higher scores indicate worse symptoms. Serum bile acid measurements were taken at all study visits.
Relationships between changes from baseline to weeks 25-48 in autotaxin, pruritus, and serum bile acid levels were assessed as post hoc analyses. Changes from baseline were summarized descriptively. Pearson coefficients and P values were calculated for correlations. Responders were defined as ≥70% reduction from baseline in serum bile acids or serum bile acids ≤70 μmol/L at last assessment up to week 48 and/or pruritus score reduction of ≥1 point from baseline based on last available monthly or 12-week interval score up to week 48.
Values are based on last assessment up to week 48. For serum bile acids, this was the average value from weeks 46 and 48 when available; otherwise, the last available assessment in the interval was used. For pruritus, last monthly score was used when available; otherwise, the score from the last 12 weeks was used. For autotaxin, the last assessment within the interval was used.

Experiment [2] has as its system patients with PFIC with prior PEBD surgery. The experiment in a line: PEDFIC 1/2 post hoc subgroup: patients with prior partial external biliary diversion (PEBD). The format is in vivo, human. On the set-up: key: Y: sBAs reduced ≥70% or levels ≤70 μmol/L at last assesment; N, no. As to conditions: Patient 10 (prior PEBD, PFIC2; PEDFIC 2 only, 120 μg/kg/d; 35 weeks exposure). Here is the method:
One surgical treatment option for patients with PFIC is partial external biliary diversion (PEBD), which can be used to reduce bile acid levels in patients with medically refractory pruritus. However, PEBD is not successful in all patients. […] This post hoc subgroup analysis evaluated the safety and efficacy of odevixibat in patients enrolled in the PEDFIC studies who had PEBD surgery prior to study entry.
In the double-blind PEDFIC 1 study, children with PFIC1 or PFIC2 were randomized to placebo or 40 or 120 μg/kg/day odevixibat for 24 weeks. In PEDFIC 2, an ongoing, open-label extension study, patients from PEDFIC 1 or newly enrolled patients with any PFIC subtype receive odevixibat 120 μg/kg/day. In both PEDFIC 1 and PEDFIC 2, eligible patients had elevated sBAs and significant pruritus at screening. Changes over time in sBA levels and observer-reported pruritus (range: 0-4; higher scores indicate worse symptoms), sleep parameters, and quality of life (QoL; assessed with the Pediatric Quality of Life Inventory [PedsQL]) were evaluated in the subgroup of patients from PEDFIC 1 and/or PEDFIC 2 with a medical history of PEBD surgery performed prior to study enrollment.

The mark [3] stands for this setting: patients analyzed in correlation analyses, N=44.

`CCCCC1(CCCC)CN(c2ccccc2)c2cc(SC)c(OCC(=O)N[C@@H](C(=O)N[C@@H](CC)C(=O)O)c3ccc(O)cc3)cc2S(=O)(=O)N1` [Odevixibat, 1,1-dioxo-3,3-dibutyl-5-phenyl-7-methylthio-8-(N-{(R)-α-[N-((S)-1-carboxypropyl)carbamoyl]-4-hydroxybenzyl}carbamoylmethoxy)-2,3,4,5-tetrahydro-1,2,5-benzothiadiazepine]: the “Autotaxin, percentage change from baseline to weeks 25-48, mean (SE)” value in experiment [1] (patients analyzed in correlation analyses, N=33) is given as −50% (6%). Also, the “Autotaxin, change from baseline to weeks 25-48, mean (SE)” value in experiment [1] (patients analyzed in correlation analyses, N=33, last assessment up to week 48) is on record as −1696 (266) ng/ml. Moreover, in experiment [1] (setting [3]), the “Serum bile acids, change from baseline to weeks 25-48, mean (SE)” value is on record as −140 (25) μmol/L and the “Serum bile acids, percentage change from baseline to weeks 25-48, mean (SE)” value is given as −49% (8%). Further, in experiment [1] (patients analyzed in correlation analyses, N=44, PRUCISION scale), the “Pruritus score (range, 0-4), change from baseline to weeks 25-48, mean (SE)” value is −1.4 (0.2). Further, in experiment [1] (patients with PFIC), the “effect on autotaxin, pruritus and serum bile acids” value was “reduced autotaxin, pruritus, and serum bile acids”. In experiment [2], the “sBA Responder?” value was “Y”.
